Measured values reported in BindingDB's records for doi:10.1016/j.bmc.2006.09.047 (Astellas Pharma, 2007).

Target: PI3-kinase p110α (Bos taurus)
Assay: The test compounds and enzyme were mixed in buffer, and the substrate and [gamma-33P] ATP/ATP were added to the mixture to initiate the reaction. After allowing the reaction to proceed at room temperature for 120 min, wheat germ agglutinin-coated SPA beads (Amersham) was added. The mixture was left to stand for 5 min and then centrifuged. Radi
Conditions: pH 7.4

IC50 [nM] | SMILES
> 30000 | Cc1nc2ccc(Cl)cn2c1-c1ccn(S(=O)(=O)c2ccc([N+](=O)[O-])cc2)n1 [3-{6-chloro-2-methylimidazo[1,2-a]pyridin-3-yl}-1-[(4-nitrobenzene)sulfonyl]-1H-pyrazole]
100 | Cc1ccc([N+](=O)[O-])cc1S(=O)(=O)n1ccc(-c2cnc3ccc(Cl)cn23)c1 [3-{6-chloroimidazo[1,2-a]pyridin-3-yl}-1-[(2-methyl-5-nitrobenzene)sulfonyl]-1H-pyrrole]
